We go through 20 compounds from patent US20230066011A1, “PYRROLOPYRIMIDINE DERIVATIVE, AND PHARMACEUTICAL COMPOSITION FOR PREVENTING OR TREATING PROTEIN KINASE-RELATED DISEASE COMPRISING SAME AS ACTIVE INGREDIENT” (VORONOI CO., LTD., priority 2019, published 2023).

As usually defined, the IC50 is the concentration needed to halve the response being measured. The term GI50 denotes the concentration at which growth is held to half of that of the control. Low readings indicate greater sensitivity of the cells, high ones lower sensitivity of the cells.

One test deals with T1, human GST-DYRK1A (Homo sapiens, UniProt Q13627).
T1 construct: purified human GST-DYRK1A (full length, Thermo Scientifics) enzyme; purchased Thermo Scientifics
Kind of test: GST-DYRK1A enzyme inhibition, ADP-Glo kinase assay. In kind it is biochemical. Particulars: ATP 10 μM, GST-DYRK1A full length, read-out: DYRK1 IC50. In a few lines:
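Full-length human GST-DYRK1A (10 ng) with 10 μM ATP and specific substrate in 40 mM Tris-HCl pH 7.4, 20 mM MgCl2, 0.5 mg/mL BSA, 50 μM DTT, 1 h at 25 °C. ADP formation read by ADP-Glo luminescence relative to solvent control; IC50 from three data sets.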
Background: In ADP-Glo the light output rises with the ADP produced.

For the next test, the target named is T2, TTK (Homo sapiens, UniProt P33981).
T2 sequence (P33981 1-857): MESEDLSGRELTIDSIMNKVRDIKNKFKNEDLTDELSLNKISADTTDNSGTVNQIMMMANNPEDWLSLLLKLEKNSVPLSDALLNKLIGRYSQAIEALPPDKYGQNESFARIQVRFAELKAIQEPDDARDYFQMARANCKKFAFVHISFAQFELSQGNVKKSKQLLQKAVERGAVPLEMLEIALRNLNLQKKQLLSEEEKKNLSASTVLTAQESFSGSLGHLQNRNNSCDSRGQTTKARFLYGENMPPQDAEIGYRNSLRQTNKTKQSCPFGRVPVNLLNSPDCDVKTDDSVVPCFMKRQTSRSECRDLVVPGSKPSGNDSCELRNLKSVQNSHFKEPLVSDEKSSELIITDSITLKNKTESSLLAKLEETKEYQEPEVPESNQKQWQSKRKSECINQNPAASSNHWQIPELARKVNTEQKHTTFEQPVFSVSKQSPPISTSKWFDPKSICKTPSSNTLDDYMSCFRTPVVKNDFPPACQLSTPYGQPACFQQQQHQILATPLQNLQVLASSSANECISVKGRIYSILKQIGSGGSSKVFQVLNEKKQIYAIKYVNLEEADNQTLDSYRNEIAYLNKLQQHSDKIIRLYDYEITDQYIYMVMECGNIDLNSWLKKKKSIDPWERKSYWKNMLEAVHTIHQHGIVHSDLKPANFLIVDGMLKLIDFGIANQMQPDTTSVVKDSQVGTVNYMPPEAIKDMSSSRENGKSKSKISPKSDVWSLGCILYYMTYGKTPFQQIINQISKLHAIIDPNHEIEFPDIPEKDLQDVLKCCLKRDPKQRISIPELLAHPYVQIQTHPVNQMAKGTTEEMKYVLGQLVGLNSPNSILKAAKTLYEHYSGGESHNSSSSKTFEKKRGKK
The test can be described thus: TTK enzyme inhibition, ADP-Glo kinase assay. In kind it is biochemical. Particulars: ATP 5 μM. The arrangement: purchased SignalChem T20-10G. Summed up: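 Purified human TTK (7.5 ng) was reacted with 5 μM ATP and 0.2 μg MBP substrate for 4 h at 25 °C in 40 mM Tris-HCl pH 7.4, 20 mM MgCl2, 0.1 mg/mL BSA, 50 μM DTT. ADP formation was read by ADP-Glo luminescence, and IC50 was taken relative to solvent control.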

A further test concerns MDA-MB-468 cell line. Kind of test: Inhibition of proliferation of MDA-MB-468 cancer cells (Cell Titer-Glo). Type of test: cell-based. Particulars: Homo sapiens, MDA-MB-468, 72 hours. In a few lines:
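GI50 values derive from Cell Titer-Glo luminescence, measured after a 10-minute room-temperature incubation with the reagent. Before that, cells plated at 2,000 per well in DMEM or RPMI medium were treated for 72 h with compound at 11 final concentrations spanning 10 μM down to 0.000169 μM in threefold steps.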

For the compound `CCCNc1nc(Nc2ccc(C(=O)N3CCC(N4CCOCC4)CC3)c3c2OCCO3)nc2[nH]cc(C#N)c12` [Example 138, 2-((8-(4-morpholinopiperidine-1-carbonyl)-2,3-dihydrobenzo[b][1,4]dioxin-5-yl)amino)-4-(propylamino)-7H-pyrrolo[2,3-d]pyrimidine-5-carbonitrile], the IC50 on human GST-DYRK1A is 101 to 300 nM; at TTK, less than 100 nM.
On the same counts, the results for `CNc1nc(Nc2ccc(S(=O)(=O)N3CCC(N4CCOCC4)CC3)cc2OC)nc2[nH]cc(C(F)(F)F)c12` [Example 157, N^2-(2-methoxy-4-((4-morpholinopiperidin-1-yl)sulfonyl)phenyl)-N^4-methyl-5-(trifluoromethyl)-7H-pyrrolo[2,3-d]pyrimidine-2,4-diamine 2,2,2-trifluoroacetate] are less than 100 nM and less than 100 nM.
Compound `CCNc1nc(Nc2ccc(S(=O)(=O)N3CCC(N4CCOCC4)CC3)cc2OC)nc2[nH]cc(C(F)(F)F)c12` [Example 158, N^4-ethyl-N^2-(2-methoxy-4-((4-morpholinopiperidin-1-yl)sulfonyl)phenyl)-5-(trifluoromethyl)-7H-pyrrolo[2,3-d]pyrimidine-2,4-diamine 2,2,2-trifluoroacetate] came in with an IC50 at TTK of less than 100 nM.
Still for that read-out and setting: the value for `CCCNc1nc(Nc2ccc(S(=O)(=O)N3CCC(N4CCOCC4)CC3)cc2OC)nc2[nH]cc(C(F)(F)F)c12` [Example 161, N^2-(2-methoxy-4-((4-morpholinopiperidin-1-yl)sulfonyl)phenyl)-N^4-propyl-5-(trifluoromethyl)-7H-pyrrolo[2,3-d]pyrimidine-2,4-diamine] was 101 to 300 nM.
As to `COc1cc(S(=O)(=O)N2CCOCC2)ccc1Nc1nc(C2CC2)c2c(C#N)c[nH]c2n1` [Example 223, 4-cyclopropyl-2-((2-methoxy-4-(morpholinosulfonyl)phenyl)amino)-7H-pyrrolo[2,3-d]pyrimidine-5-carbonitrile], the GI50 in the test on MDA-MB-468 cell line fell in the range of 301 to 1000 nM. On TTK, the 50% inhibitory concentration (IC50) was in the range of 101 to 300 nM.
On the same counts, the results for `COc1cc(S(=O)(=O)N2CCC(N3CCOCC3)CC2)ccc1Nc1nc(C2CC2)c2c(C#N)c[nH]c2n1` [Example 224, 4-cyclopropyl-2-((2-methoxy-4-((4-morpholinopiperidin-1-yl)sulfonyl)phenyl)amino)-7H-pyrrolo[2,3-d]pyrimidine-5-carbonitrile] are less than 50 nM and less than 100 nM.
On the same counts, the results for `COc1cc(S(=O)(=O)N2CCC(N3CCOCC3)CC2)ccc1Nc1nc(C2CC2)c2c(C(F)(F)F)c[nH]c2n1` [Example 226] are 301 to 1000 nM and less than 100 nM.
For `O=C(c1ccc(Nc2nc(C3CC3)c3c(C(F)(F)F)c[nH]c3n2)c2c1OCCO2)N1CCC(N2CCOCC2)CC1` [Example 228, (8-((4-cyclopropyl-5-(trifluoromethyl)-7H-pyrrolo[2,3-d]pyrimidin-2-yl)amino)-2,3-dihydrobenzo[b][1,4]dioxin-5-yl)(4-morpholinopiperidin-1-yl)methanone], in that order: 301 to 1000 nM and less than 100 nM.
With `CNc1nc(Nc2ccc(C(=O)N3CC[C@H](N4CCOCC4)C3)c3c2OCC3)nc2[nH]cc(C(F)(F)F)c12` [Example 236, (S)-(7-((4-(methylamino)-5-(trifluoromethyl)-7H-pyrrolo[2,3-d]pyrimidin-2-yl)amino)-2,3-dihydrobenzofuran-4-yl)(3-morpholinopyrrolidin-1-yl)methanone], the IC50 at human GST-DYRK1A is less than 100 nM.
Regarding `CNc1nc(Nc2ccc(C(=O)N3CCC(N4CCOCC4)CC3)c3c2OCCO3)nc2[nH]cc(C(F)(F)F)c12` [Example 238, (8-((4-(methylamino)-5-(trifluoromethyl)-7H-pyrrolo[2,3-d]pyrimidin-2-yl)amino)-2,3-dihydrobenzo[b][1,4]dioxin-5-yl)(4-morpholinopiperidin-1-yl)methanone], the IC50 at human GST-DYRK1A was less than 100 nM.
As to `CCNc1nc(Nc2ccc(C(=O)N3CCC(N4CCOCC4)CC3)c3c2OCC3)nc2[nH]cc(C#N)c12` [Example 347, 4-(ethylamino)-2-((4-(4-morpholino-piperidine-1-carbonyl)-2,3-dihydro-benzofuran-7-yl)amino)-7H-pyrrolo[2,3-d]pyrimidine-5-carbonitrile], on human GST-DYRK1A, the IC50 was less than 100 nM.
On to `CCNc1nc(Nc2ccc(C(=O)N3CCN(C4COC4)CC3)c3c2OCCO3)nc2[nH]cc(C(F)(F)F)c12` [Example 400, (8-((4-(ethylamino)-5-(trifluoromethyl)-7H-pyrrolo[2,3-d]pyrimidin-2-yl)amino)-2,3-dihydrobenzo[b] [1,4]dioxin-5-yl) (4-(oxetan-3-yl)piperazin-1-yl)methanone], for which the IC50 at human GST-DYRK1A was less than 100 nM. The compound further returned a GI50 in the test on MDA-MB-468 cell line of 301 to 1000 nM.
On the same counts, the results for `O=C(c1ccc(Nc2nc(NC3CC3)c3c(C(F)(F)F)c[nH]c3n2)c2c1OCCO2)N1CCN(C2COC2)CC1` [Example 405, (8-((4-(cyclo-propylamino)-5-(trifluoromethyl)-7H-pyrrolo[2,3-d]pyrimidin-2-yl)amino)-2,3-dihydrobenzo[b] [1,4]dioxin-5-yl) (4-(oxetan-3-yl)piperazin-1-yl)methanone] are less than 100 nM and 301 to 1000 nM.
On the same counts, the results for `O=C(c1ccc(Nc2nc(NC3CCC3)c3c(C(F)(F)F)c[nH]c3n2)c2c1OCCO2)N1CCN(C2COC2)CC1` [Example 407, (8-((4-(cyclo-butylamino)-5-(trifluoromethyl)-7H-pyrrolo[2,3-d]pyrimidin-2-yl)amino)-2,3-dihydrobenzo[b] [1,4]dioxin-5-yl) (4-(oxetan-3-yl)piperazin-1-yl)methanone] are less than 100 nM and 301 to 1000 nM.
With `CNc1nc(Nc2ccc(P3(=O)CCN(C4CC4)CC3)cc2OC)nc2[nH]cc(C(F)(F)F)c12` [Example 411, 1-cyclopropyl-4-(3-methoxy-4-((4-(methylamino)-5-(trifluoromethyl)-7H-pyrrolo[2,3-d]pyrimidin-2-yl)amino)phenyl)-1,4-azaphosphinane-4-oxide], on human GST-DYRK1A, the IC50 was 101 to 300 nM.
For `COc1cc(P2(=O)CCN(C3CC3)CC2)ccc1Nc1nc(NC2CCCC2)c2c(C(F)(F)F)c[nH]c2n1` [Example 413], the figures for the IC50 on human GST-DYRK1A and against TTK were 301 to 1000 nM and less than 100 nM, respectively.
For `COc1cc(P2(=O)CCN(C3CCOCC3)CC2)ccc1Nc1nc(NC2CC2)c2c(C(F)(F)F)c[nH]c2n1` [Example 435, 4-(4-((4-(cyclo-propylamino)-5-(trifluoromethyl)-7H-pyrrolo[2,3-d]pyrimidin-2-yl)amino)-3-methoxyphenyl)-1-(tetrahydro-2H-pyran-4-yl)-1,4-azaphosphinane 4-oxide], in that order: less than 100 nM and less than 100 nM.
On to `COCCNc1nc(Nc2ccc(P3(=O)CCN(C4CCOCC4)CC3)cc2OC)nc2[nH]cc(C(F)(F)F)c12` [Example 444, 4-(3-methoxy-4-((4-((2-methoxyethyl)amino)-5-(trifluoromethyl)-7H-pyrrolo[2,3-d]pyrimidin-2-yl)amino)phenyl)-1-(tetrahydro-2H-pyran-4-yl)-1,4-azaphosphinane 4-oxide], for which the IC50 at human GST-DYRK1A is less than 100 nM. In addition, the GI50 with MDA-MB-468 cell line lay in the range of 301 to 1000 nM.
On to `O=C(c1ccc(Nc2nc(NCC3CC3)c3c(C(F)(F)F)c[nH]c3n2)c2c1CCO2)N1CCC(N2CCOCC2)CC1` [Example 461, (7-((4-((cyclo-propylmeth-yl)amino)-5-(trifluoromethyl)-7H-pyrrolo[2,3-d]pyrimidin-2-yl)amino)-2,3-dihydrobenzo-furan-4-yl)(4-morpho-linopiperidin-1-yl)methanone], for which the IC50 on human GST-DYRK1A is less than 100 nM.
Same read-out and setting: in the case of `CCNc1nc(Nc2ccc(C(=O)N3CC[C@H](N4CCOCC4)C3)c3c2OCC3)nc2[nH]cc(C(F)(F)F)c12` [Example 475, (S)-(7-((4-(ethylamino)-5-(trifluoromethyl)-7H-pyrrolo[2,3-d]pyrimidin-2-yl)amino)-2,3-dihydrobenzo-furan-4-yl)(3-morpholino-pyrrolidin-1-yl)methanone] it was less than 100 nM.
